Assay results: ChEMBL document CHEMBL4834417, “Diverse Polycyclic Polyprenylated Acylphloroglucinol Congeners with Anti-Nonalcoholic Steatohepatitis Activity from Hypericum forrestii” (J Nat Prod, 2021)
Active and inactive are the calls of the source.

Experiments:
Format in all cases: functional, cell-based
L02 [1] = test: Anti-nonalcoholic steatohepatitis activity in FFA-induced human L02 cells assessed as reduction in lipid droplets at 5 uM after 48 hrs by Oil red O staining based assay
L02 [2] = test: Anti-nonalcoholic steatohepatitis activity in FFA-induced human L02 cells assessed as reduction in lipid droplets after 48 hrs by Oil red O staining based assay; settings: dose 5-10 µM
L02 [3] = test: Anti-nonalcoholic steatohepatitis activity in FFA-induced human L02 cells assessed as downregulation of CD36 mRNA expression at 10 uM by QRT-PCR analysis
L02 [4] = test: Anti-nonalcoholic steatohepatitis activity in FFA-induced human L02 cells assessed as downregulation of FASN mRNA expression at 10 uM by QRT-PCR analysis
L02 [5] = test: Anti-nonalcoholic steatohepatitis activity in FFA-induced human L02 cells assessed as upregulation of PPARalpha mRNA expression at 10 uM by QRT-PCR analysis
L02 [6] = test: Anti-nonalcoholic steatohepatitis activity in FFA-induced human L02 cells assessed as upregulation of ACOX1 mRNA expression at 10 uM by QRT-PCR analysis

Measured: Activity

CC(C)=CCC/C(C)=C/C[C@]1(CC=C(C)C)C(=O)C(C(=O)c2ccccc2)=C2OC(C)(C)[C@@H]3C[C@]23C1=O
active: L02 [1] | L02 [2] Dose-Dependent Effect | L02 [3] | L02 [4] | L02 [5] | L02 [6]

CC(C)=CCC[C@]1(C)[C@@H](CC=C(C)C)C[C@]23C[C@H](C(C)(C)O)OC2=C(CC=C(C)C)C(=O)[C@@]1(C(=O)c1ccccc1)C3=O
active: L02 [1] | L02 [2] Dose-Dependent Effect | L02 [3] | L02 [4] | L02 [5] | L02 [6]
